pEC50, pIC50: −log10 of the molar value. Non-standard residues stand in square brackets, D forms with d. Residues, ends and D or L forms follow the SMILES beside them. No end group written: not given here.
Tests used:
VEGFR2 (Flk-1) = experiment: VEGF induced proliferation in microvascular endothelial cells, incorporated tritiated thymidine method; format: cell-based, porcine; details: VEGF 2 ng/ml; peptides 10 μM (FIG. 2 panel A)
Description: (§1) FIG. 2 graphically illustrates in panel A results of proliferation assay in porcine microvascular endothelial cells in presence of VEGF (2 ng/ml) and peptides 2.1, 2.2, 2.3 (10 μM). In panel B are graphically illustrated dose-response of peptides in pulmonary arterial endothelial cells (PAEC) in presence of VEGF (2 ng/ml) and increasing doses of peptides. In panel C is graphically illustrated the effect of intravitreally injected peptides (10 μM [estimated final intraocular concentration]) of the present invention on neovascularization in rat retinas exposed to hyperoxic conditions;
To determine the efficient and non cytotoxic concentration of VEGF to use in the assay, a dose-response curve of VEGF was generated in two types of cells, namely microvascular endothelial cells and pulmonary artery endothelial cells (PAEC) that had been transfected with the Flk-1 gene. The proliferation was then measured in those two types of cells in the presence of peptides 2.1, 2.2 and 2.3 and of VEGF (2 ng/ml) pursuant to the incorporated tritiated thymidine method. The cells were preincubated at 37° C. with the different peptides at different concentrations. They were incubated with VEGF (2 ng/ml) for 24 hours. The cells were contacted with ^3H-Thymidine for 24 hours, washed and lysed. The radioactivity was measured with a scintillation counter.

VEGFR (Flk-1) = molecular target: T1, VEGFR (Flk-1) (Rattus norvegicus, UniProt O08775); experiment: Ischemic retinopathy model, neovascularization in rat retinas exposed to hyperoxic conditions; format: in vivo; details: rat pups, 80% O2 then normoxia; peptides 10 μM final concentration in the vitreous body
T1 construct: from tissue; host or cells: rat pup retina (in vivo, intravitreal injection)
Description: as §1
The efficiency of the selected peptides was verified in vivo in a ischemic retinopathy model, a phenomena highly dependant on VEGF activation. Rat pups were exposed to 80% O2 followed by a period of normoxia (21% O2). The peptides were injected at a final concentration of 10 μM in the vitreous body. The retinas were then retrieved, colored with the ADPase method and mounted on slides. Photographs of the retinas were taken with a microscope linked to a computer and the vascular density was evaluated with the Image prosoftware.

IL-1R/IL-1RacP [1] = experiment: Vasomotricity of piglet pial vessels, IL-1β induced vasodilatation; details: IL-1β 75 ng/ml; U46619 10^−7M preconstriction; peptide 10^−10 to 10^−5 M; data not shown; read-out: IC50, prevention of vasodilation induced by IL-1β in piglet pial vessels
Description: In another experiment, vasomotricity variation of piglets pial vessels was studied to further evaluate the particular effect of cytokine receptor subfragments on the vasodilatator effect of IL-1β. Brains were dissected from Yorkshire piglets. Slices of brain exposing the pial vessels were pinned to a wax base of a 20 ml bath containing Krebs buffer (pH 7.4) equilibrated with 95% O2-5% CO2 and maintained at 37° C. Microvessels were visualized and recorded using a video camera mounted on a dissecting microscope. Vascular diameter was measured using a digital image analyzer and the images were recorded before and after topical application of constricting agent U46619 at 10^−7M. After stabilization of the vasomotricity, IL-1β was added until stabilization of vasodilatation. Peptides were then injected at different concentrations from 10^−10 to 10^−5M. Reversal of vasodilatation (i.e. vasoconstriction) was visualized and measured as previously mentioned. IL-1β induced vasodilatation in the microvasculature of the piglet brain was observed. […] The range of concentrations of the peptide administered was from 10^−10 to 10^−5 M.

IL-1R/IL-1RacP [2] = molecular target: T2, IL-1R/IL-1RacP (Homo sapiens, UniProt Q9NPH3); experiment: IL-1 induced proliferation in A549 carcinoma cells, tritiated thymidine method; format: cell-based; details: IL-1 10 ng/ml or 1 ng/ml; peptides 10^−6 to 10^−4 M
T2 construct: endogenous in cells; host or cells: A549 carcinoma cells
T2 sequence (Q9NPH3 21-570): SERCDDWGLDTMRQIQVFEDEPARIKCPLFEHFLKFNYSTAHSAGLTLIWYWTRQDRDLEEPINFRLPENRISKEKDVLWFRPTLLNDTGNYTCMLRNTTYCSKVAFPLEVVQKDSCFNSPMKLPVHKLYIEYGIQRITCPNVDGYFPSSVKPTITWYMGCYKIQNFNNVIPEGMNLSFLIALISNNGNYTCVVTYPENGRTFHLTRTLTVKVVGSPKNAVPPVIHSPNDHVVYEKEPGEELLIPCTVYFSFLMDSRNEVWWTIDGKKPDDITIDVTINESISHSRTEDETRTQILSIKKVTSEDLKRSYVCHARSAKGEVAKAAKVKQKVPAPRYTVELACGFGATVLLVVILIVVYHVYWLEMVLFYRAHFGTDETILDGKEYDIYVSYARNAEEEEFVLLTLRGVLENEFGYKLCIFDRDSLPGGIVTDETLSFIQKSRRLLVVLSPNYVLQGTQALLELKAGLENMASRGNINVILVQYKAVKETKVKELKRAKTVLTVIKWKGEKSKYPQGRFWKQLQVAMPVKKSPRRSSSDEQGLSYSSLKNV
Description: FIG. 9 graphically illustrates results of proliferation assays in carcinome A549 cells in presence of IL-1 (10 ng/ml-Panel A) (1 ng/ml-Panel B) and various concentrations of the peptides API-101, API-103 and API-106;
The proliferation effect of IL-1 was measured in A549 carcinoma cells in the presence of peptides API101; API103 and API106 and of IL-1 (10 ng/ml-Panel A) and (1 ng/ml-Panel B) pursuant to the incorporated tritiated thymidine method. The cells were preincubated at 37° C. with the different peptides at different concentrations, namely 10^−6, 10^−5 and 10^−4 M. They were then incubated with IL-1 (10 ng/ml or 1 ng/ml) for 24 hours. The cells were then contacted with ^3H-Thymidine for 24 hours, washed and lysed. The radioactivity was then measured with a scintillation counter. The sequences of the peptides antagonists used are as follows: API-101 […], API-103 […]; and API-106 […]. They generally correspond to the subfragment peptides having sequences SEQ ID NO: 50, NO: 52 and NO: 53, respectively except where the subfragment peptide contained an isoleucine. In that case, this isoleucine was replaced by a conservative leucine in the synthesized peptide for economic reasons.

T1 sequence (O08775 20-1343): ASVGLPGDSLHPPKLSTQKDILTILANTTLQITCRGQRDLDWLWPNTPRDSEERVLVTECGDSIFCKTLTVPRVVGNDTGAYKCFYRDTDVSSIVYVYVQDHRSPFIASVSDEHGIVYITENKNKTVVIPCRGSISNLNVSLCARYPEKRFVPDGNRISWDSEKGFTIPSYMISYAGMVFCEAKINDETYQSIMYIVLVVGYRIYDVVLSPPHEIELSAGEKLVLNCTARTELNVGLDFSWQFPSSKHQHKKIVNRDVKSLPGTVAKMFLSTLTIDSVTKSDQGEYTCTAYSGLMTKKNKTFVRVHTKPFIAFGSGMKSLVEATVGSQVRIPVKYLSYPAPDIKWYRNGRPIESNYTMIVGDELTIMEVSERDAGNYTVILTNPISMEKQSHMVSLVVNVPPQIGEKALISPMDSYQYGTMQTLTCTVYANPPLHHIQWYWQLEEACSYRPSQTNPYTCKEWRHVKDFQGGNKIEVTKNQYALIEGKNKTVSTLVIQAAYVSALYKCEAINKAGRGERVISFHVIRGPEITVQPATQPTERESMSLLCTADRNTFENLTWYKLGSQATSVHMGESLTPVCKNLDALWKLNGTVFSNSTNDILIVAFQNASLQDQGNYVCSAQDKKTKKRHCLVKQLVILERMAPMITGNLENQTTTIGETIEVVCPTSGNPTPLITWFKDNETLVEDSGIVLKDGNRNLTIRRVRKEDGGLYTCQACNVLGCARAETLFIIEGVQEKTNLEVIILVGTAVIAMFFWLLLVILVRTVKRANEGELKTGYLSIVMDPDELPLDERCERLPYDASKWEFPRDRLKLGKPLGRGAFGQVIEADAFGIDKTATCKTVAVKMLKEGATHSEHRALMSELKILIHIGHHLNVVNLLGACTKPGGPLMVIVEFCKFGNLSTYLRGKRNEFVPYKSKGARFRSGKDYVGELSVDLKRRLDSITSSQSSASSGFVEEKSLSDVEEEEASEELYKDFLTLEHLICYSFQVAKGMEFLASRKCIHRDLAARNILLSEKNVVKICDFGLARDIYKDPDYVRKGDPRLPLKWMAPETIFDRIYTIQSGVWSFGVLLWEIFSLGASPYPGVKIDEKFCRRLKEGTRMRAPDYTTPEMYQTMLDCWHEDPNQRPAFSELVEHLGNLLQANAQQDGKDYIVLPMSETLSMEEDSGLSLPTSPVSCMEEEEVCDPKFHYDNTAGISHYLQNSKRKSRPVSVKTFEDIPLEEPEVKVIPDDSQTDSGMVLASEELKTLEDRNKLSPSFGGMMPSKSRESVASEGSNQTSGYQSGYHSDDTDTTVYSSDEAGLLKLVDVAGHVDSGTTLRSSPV

pIC50 (IL-1R/IL-1RacP [1]) | pEC50 (IL-1R/IL-1RacP [2]) | Compound | VEGF induced proliferation in microvascular endothelial cells (VEGFR2 (Flk-1)) | induced neovascularization in vivo (vascular density of retina) (VEGFR (Flk-1))
 |  | CC[C@@H](C)[C@@H](NC(=O)[C@@H](CCC(=O)O)NC(=O)[C@@H](CC(C)C)NC(=O)[C@@H](CC(N)=O)NC(=O)[C@H](NC(=O)[C@@H](CCCCN)NC(=O)[C@@H](CCC(=O)O)NC(=O)[C@@H](CCC(N)=O)NC(=O)[C@@H](C)N)[C@H](C)O)C(=O)N[C@@H](C(=O)N[C@@H](C(=O)N[C@H](CC(C)C)C(=O)N[C@@H](C(=O)NCC(=O)O)C(C)C)[C@H](C)CC)[C@H](C)CC [2.1] (H-[dA][dQ][dE][dK][dT][dN][dL][dE][dI][dI][dI][dL][dV]G-OH; N-terminus and C-terminus assumed) | completely abrogated | 
 |  | CC(C)C[C@@H](NC(=O)[C@@H](CCCNC(=N)N)NC(=O)[C@H](NC(=O)[C@@H](CCCNC(=N)N)NC(=O)[C@@H](CCC(=O)O)NC(=O)CNC(=O)[C@H](NC(=O)[C@H](NC(=O)[C@@H](C)NC(=O)[C@H](N)CCC(=O)O)[C@H](C)O)C(C)C)C(C)C)C(=O)O [2.2] (H-[dE][dA][dT][dV]G[dE][dR][dV][dR][dL]-OH; N-terminus and C-terminus assumed) | completely abrogated | most effective inhibitor of neovascularization
6.74 | 6.00 | APRYTVELA [API-101] |  | 
 | 6.00 | MKLPVHKLY [API-103] |  | 
